Data set [1] has as its system NSD1-inhibited MOC1 tumors. The data set is described as follows: Luciferase expressing MOC1 tumors, EZH2 inhibitor treatment, bioluminescence imaging. The format is in vivo, mouse (B6 wild type). Conditions: 200 mg/kg daily, luminescence day 10. The method, then:
FIG. 14. Luciferase expressing MOC1 cells, transduced with scramble control shRNA, NSD1 shRNA, or both NSD1 shRNA and KDM2A shRNA, were injected to B6 wild type mice subcutaneously. The mice were treated 24 hours later with or without EZH2 inhibitor (EPZ-6438) at a dose of 200 mg/kg daily, with or without anti-PD-1 antibody (200 μg/mouse). Bioluminescence imaging was used to assess tumor burden; quantified luminescence signal on day 10 is shown in photons per second. *p<0.05.

Data set [2] has as its system KDM2A. The conditions noted are these: cited from earlier work.
In data set [3] the test system is other JmjC lysine demethylases. Conditions: KDM2A/7A versus other JmjC lysine demethylases; cited from earlier work.
The subject of the next data set is methyl transferases. Conditions: cited from earlier work.
Data set [4] concerns histone acetyl transferases. Conditions: cited from earlier work.
For data set [5] the following is noted: not told; cited from earlier work.
A further data set has as its system FaDu tumor spheroids. The data set is described as follows: Spheroid T cell infiltration assay, CD19-CAR T cells co-cultured with CD19-expressing tumor spheroids. In kind it is cell-based, human. Conditions: daminozide 1.5 μM, added the day before T cells; 3 days co-culture. The source says: FIG. 3A-3G. KDM2A inhibition reverses the immune cold phenotype induced by NSD1 inactivation and induces T cell infiltration into the tumor microenvironment. (A) Overview and illustration of experiment workflow. Tumor spheroids were established from HNSCC tumor cells transfected to express truncated CD19 on the cell surface and grown in submerged Matrigel. The spheroids were co-cultured with CD19-CAR-T cells for three days and then isolated for analysis by confocal microscopy. (B) Assessment by qRT-PCR of CXCL9 and CXCL10 expression after CXCL9 or CXCL10 overexpression (OE) in FaDu cells transduced to express shRNA targeting NSD1 (NSD1-sh). (C) Representative images of tumor spheroids after co-cultured with CD19-CAR-T cells for 3 days. Ctrl=vector control; NSD1-sh=shRNA targeting NSD1; CXCL9-OE=overexpression construct for CXCL9; CXCL10-OE=overexpression construct for CXCL10; KDM2A-sh=shRNA targeting KDM2A. Scale bar=50 um. (D) Representative images of tumor spheroids stained with anti-CD3 antibody (red) and DAPI (blue). […] (E) Quantification of CD3+ cells per 100 cells in the spheroids. […] (G) Quantification of CD3^+ cells per 100 cells in the spheroids. […]
Spheroid T cellinfiltration assay. […] After 3 days of co-culture, the spheroid Matrigel domes were harvested and analyzed by microscopy. […] The stained samples were mounted on glass slides and analyzed by LSM700 confocal microscopy (Zeiss). […]

Data set [6] deals with KDM2A. The conditions noted are these: cited from earlier work. This is another data set of the same source.
The next data set deals with CTLA4. Conditions: cited from earlier work.
The next data set concerns CTLA-4. Conditions: cited from earlier work.
Another data set relates to HNSCC. The conditions noted are these: human, in vivo; cited from earlier work.
A further data set has as its system HPV-unrelated HNSCC. As to the kind of experiment: neoadjuvant pembrolizumab phase II window-of-opportunity trial (NCT02296684). The format is in vivo, human. Here is the method:
FIGS. 1A-1D: NSD1 inactivation downregulates the expression of CXCL9 and CXCL10 in HNSCC. RNA expression and genomic sequencing data from a multicenter, phase II, window-of-opportunity trial (NCT02296684) (23) was examined for CXCL9 and CXCL10 expression and NSD1 mutations. In this trial, neoadjuvant pembrolizumab was administered to patients with locally advanced, resectable, HPV-unrelated HNSCC two to three weeks prior to definitive surgical resection. (A) Comparison of CXCL9 and CXCL10 baseline expression to pathologic tumor response (pTR), as defined in (23), to the anti-PD-1 antibody pembrolizumab. Circles represent responders. ▴ A represent non-responders with wild-type NSD1. Gray triangles represent non-responders with mutated NSD1. (B) Tumor histology from the two patients in the trial that had tumors with NSD1 mutations. Histology of NSD wild-type tumors is also shown. […]
CXCL9 and CXCL10 in human HNSCC datasets. […] The dataset was subsequently analyzed using Seurat (25): The series matrix was loaded into a Seurat object and was filtered to exclude poor quality or dying cells by removing cells with a mitochondrial genome fraction of 0.4 or greater as well as those with a unique feature count of fewer than 200 genes. […] Expression of CXCL9 and CXCL10 was analyzed within samples that had been profiled using whole exome sequencing, such that the NSD1 mutation status was known. […]

For the compound `CCN(c1cc(-c2ccc(CN3CCOCC3)cc2)cc(C(=O)NCc2c(C)cc(C)[nH]c2=O)c1C)C1CCOCC1` [EPZ-6438], the “tumor growth in WT mice (EZH2 inhibition)” value in data set [1] is “does reduce tumor growth in WT mice but not to the extent that KDM2A inhibition appeared to achieve”.
For `CC(=O)N1c2ccccc2[C@@](C#N)(c2ccccc2)[C@@H]1c1cncc(CCCCCCCN2CCCC2)c1` [KDM2A/7A-IN-1], the IC50 in the data set on KDM2A [2] was 160 nM. Further, in data set [3], the “selectivity over other JmjC lysine demethylases” value is reported as 75 fold. For the same compound, the “activity on methyl transferases” value with methyl transferases is “inactive”. In addition, in data set [4], the “activity on histone acetyl transferases” value is “inactive”. Moreover, the cell permeability result in data set [5] was “cell-permeable”.
As for `CN(C)NC(=O)CCC(=O)O` [daminozide], the “T cell infiltration into tumor spheroids (CD3+ cells per 100 cells)” value in the data set on FaDu tumor spheroids was “increased the number of infiltrating T cells into tumor spheroids”. Moreover, in the data set on KDM2A [6], the “effect on KDM2A histone demethylation” value is listed as “significantly abrogate the effect of KDM2A on histone demethylation”.
As for “Tremelimumab: fully humanized CTLA4 antibody”, in the data set on CTLA4 (10 mg/kg monthly vs 15 mg/kg every 3 months, phase II), the toxicity result is “toxicity was doubled”. Further, the “sustained plasma level in the majority of responders” value in the data set with CTLA4 (at one month) is > 30 µg/mL. For the same compound, in the data set with CTLA4 (single antibody infusion, 0.01 mg/kg to 15 mg/kg), the “dose at which objective responses were evident” value is reported as ≥ 3 mg/kg.
For “ipilimumab: fully humanized CTLA4 antibody”, the “grade III/IV enterocolitis” value with CTLA-4 (10 mg/kg) is on record as ~ 15%. In addition, in the data set with CTLA-4 (additional irAEs), the hepatitis was 5-10%, the hypophysitis is 5%, the leucopenia is < 2% and the pancreatitis is < 2%. For the same compound, in the data set on CTLA-4 (additional irAEs), the rash/pruritus is listed as > 50% and the uveitis is on record as < 2%.
On to nivolumab: anti-PD-1 antibody, for which the “clinical response in recurrent/metastatic HNSCC” value with HNSCC is given as “impressive responses in recurrent/metastatic HNSCC, though only in a minority of patients”.
Regarding pembrolizumab: anti-PD-1 antibody, the “response of tumors with low CXCL9 or CXCL10 expression” value with HPV-unrelated HNSCC (neoadjuvant, two to three weeks prior to surgery) was “None of the tumors with low CXCL9 or CXCL10 expression exhibited response”. In addition, the “response of patients with NSD1 inactivating mutations” value with HPV-unrelated HNSCC (two patients) is on record as “Both were non-responders”. Moreover, the “clinical response in recurrent/metastatic HNSCC” value in the data set with HNSCC is “impressive responses in recurrent/metastatic HNSCC, though only in a minority of patients”.

By IC50 is commonly meant the concentration at which inhibition is half-maximal.

The record behind these values is US20260345524A1, “TARGETING KDM2A TO ENHANCE IMMUNE RESPONSIVENESS TO CANCERS” (The Board of Trustees of the Leland Stanford Junior …, priority 2023, published 2026).
